Test results: patent US20250019350A1, “SYNTHESIS OF THE PROSTATE SPECIFIC MEMBRANE ANTIGEN (PSMA) RADIOLABELED INHIBITOR [18F]DCFPYL” (Progenics Pharmaceuticals, Inc, priority 2023, published 2025)
One block for each compound: values may come before it.

How the values were obtained:
[1] = @ 10 hr; ascorbic acid at 10 mg/mL (Fawdry 2007); cited from earlier work
[2] = Retention/recovery of [19F]DCFPyL on the HLB solvent exchange cartridge as a function of pH (load, wash, product samples); assay type: physicochemical
Experimental: The goal of this study was to characterize the impact of pH on the retention of [^18F]DCFPyL on the HLB solvent exchange cartridge. […] The pH of one solution was adjusted to 2 and a second to 4 by adding 1N HCl. A third solution was used without adjusting its native pH of 7.2. Using a BD syringe, 10 mL of each solution was spiked with [^19F]DCFPyL (50 μg) by adding 0.5 mL of a 100 μg/mL stock solution. Each spiked solution was loaded onto a HLB cartridge at a rate of approximately 2 mL/min. […] The eluent from each HLB cartridge was individually collected and identified as the “wash solution.” Each HLB cartridge was then individually eluted with 1 mL of ethanol, the samples collected and are identified as the “product sample.” The load solution and wash solution samples were analyzed using a drug product chemical impurity assay after a 1 to 10 mL dilution with saline, while the ethanolic product samples were analyzed following a 0.5 to 10 dilution with saline.
The goal of this study was to characterize the impact of pH on the retention of ^18F-DCFPyL on the HLB solvent exchange cartridge. […] The pH of one solution was adjusted to 2 and a second to 4 by adding 1N HCl. A third solution was used without adjusting its native pH of 7.2. At this pH the solution will be mainly sodium ascorbate. Using a BD syringe, 10 mL of each solution was spiked with ^19F-DCFPyL (50 μg) by adding 0.5 mL of a 100 μg/mL stock solution. Each spiked solution was loaded onto an HLB cartridge at a rate of approximately 2 mL/min and the solution collected after the HLB column is identified as the load solution. […] Each HLB cartridge was then individually eluted with 1 mL of ethanol, the solution collected after the HLB column is identified as the product sample. The load solution and wash solution samples were analyzed using the drug product chemical impurity assay after a 1 to 10 mL dilution with saline, while the ethanolic product samples were analyzed following a 0.5 to 10 mL dilution with saline.

[3] = HPLC/UV (264 nm) chemical impurity assay; ascorbic acid related impurity; assay type: physicochemical; conditions: 5 mg/mL, pH 6 ascorbic acid solution with free 18F (129 mCi/mL)
Experimental: Analytical HPLC method was used. The method employs UV detection at 264 nm for chemical impurities, and an Eckert & Ziegler model B-FC-1000 gamma detector for radiochemical assays.
Since the peak has not been previously observed in preparations in the absence of ascorbic acid it is likely ascorbic acid related and was further investigated. A decayed sample from the lot produced was analyzed further and confirmed the presence of the peak, FIG. 35. […] The sample was assayed for chemical impurities at T=0, 4, 10 and 24 hours when held inverted at ambient conditions. […] The impurity only formed with radioactivity exposure but not when stored in light or dark at ambient conditions (see FIG. 37).

[4] = cited from earlier work
[5] = HLB pH 2 Product, first Ethanol elution
[6] = HLB pH 2 Product, second Ethanol elution
[7] = HLB pH 2 Product, third Ethanol elution

Compound: OC[C@H]1O[C@@H](O)[C@H]([18F])[C@@H](O)[C@@H]1O [FDG]
- de-fluorination [1]: less than 2%

- retention by the HLB cartridge ([2]; 10 mg/mL ascorbic acid, pH 7.2): not meaningfully retained
- 19F-DCFPyL recovered (%) ([2]; HLB Saline pH 7 Rinse): 0.0%
- μg of 19F-DCFPyL recovered ([2]; HLB Saline pH 7 Rinse): Not Detected
- 19F-DCFPyL recovered (%) ([2]; HLB pH 2 Load): 0.0%
- μg of 19F-DCFPyL recovered ([2]; HLB pH 2 Load): Not Detected
- 19F-DCFPyL recovered (%) [2, 5]: 69.5%
- μg of 19F-DCFPyL recovered [2, 5]: 35.423 µg
- 19F-DCFPyL recovered (%) [2, 6]: 21.5%
- μg of 19F-DCFPyL recovered [2, 6]: 10.946 µg
- 19F-DCFPyL recovered (%) [2, 7]: 7.1%
- μg of 19F-DCFPyL recovered [2, 7]: 3.629 µg
- 19F-DCFPyL recovered (%) ([2]; HLB pH 2 Rinse): 0.0%
- μg of 19F-DCFPyL recovered ([2]; HLB pH 2 Rinse): Not Detected
- 19F-DCFPyL recovered (%) ([2]; HLB pH 4 Load): 22.0%
- μg of 19F-DCFPyL recovered ([2]; HLB pH 4 Load): 10.504 µg
- 19F-DCFPyL recovered (%) ([2]; HLB pH 4 Product): 57.7%
- μg of 19F-DCFPyL recovered ([2]; HLB pH 4 Product): 27.989 µg
- 19F-DCFPyL recovered (%) ([2]; HLB pH 4 Rinse): 0.0%
- μg of 19F-DCFPyL recovered ([2]; HLB pH 4 Rinse): Not Detected
- 19F-DCFPyL recovered (%) ([2]; HLB pH 7 Load): 87.4%
- μg of 19F-DCFPyL recovered ([2]; HLB pH 7 Load): 38.239 µg
- 19F-DCFPyL recovered (%) ([2]; HLB pH 7 Product): 0.0%
- μg of 19F-DCFPyL recovered ([2]; HLB pH 7 Product): Not Detected
- 19F-DCFPyL in the load or wash samples ([2]; pH 2): not detected
- μg of 19F-DCFPyL recovered ([2]; pH 2 Control): 50.976 µg
- 19F-DCFPyL in the product sample, % of the total amount recovered from all samples ([2]; pH 4): approximately 68%
- 19F-DCFPyL recovered in the load sample ([2]; pH 4): approximately 31%
- 19F-DCFPyL recovered in the load sample (mass) ([2]; pH 4): < 1 µg
- μg of 19F-DCFPyL recovered ([2]; pH 4 Control): 47.665 µg
- μg of 19F-DCFPyL recovered ([2]; pH 7 Control): 43.759 µg
- 19F-DCFPyL recovered in the wash samples ([2]; pH 7.2): 3.8 µg/mL
Compound: O=C(O)CC[C@H](NC(=O)N[C@@H](CCCCNC(=O)c1ccc(F)nc1)C(=O)O)C(=O)O [Lot 19F-DCFPyL]

- 4.6 min RT peak (HPLC UV) ([3]; T = 0 hours, ambient): not present
- 4.6 min RT peak (HPLC UV), approximate concentration ([3]; T = 24 hours, relative response factor of 1 to [19F]-DCFPyL standard): ~1.75 µg/mL
Compound: O=C1O[C@H]([C@@H](O)CO)C(O)=C1O [ascorbic acid]
- pKa [4]: about 4.2
